Laboratory results taken from publication PMC5808360, “Neutral Porphyrin Derivative Exerts Anticancer Activity by Targeting Cellular Topoisomerase I (Top1) and Promotes Apoptotic Cell Death without Stabilizing Top1-DNA Cleavage Complexes” (Journal of Medicinal Chemistry, 2017).

Legend:
recombinant Top1 = target: T1, recombinant Top1 (Homo sapiens, UniProt P11387); experiment: Plasmid DNA relaxation assay with recombinant human Top1; type: biochemical; settings: 1 μM compound, preincubated with Top1 before addition of DNA
T1 construct: made in house; host or cells: Sf-9 insect cells (recombinant baculovirus, gift of Prof. James J. Champoux)
T1 sequence (P11387 1-765): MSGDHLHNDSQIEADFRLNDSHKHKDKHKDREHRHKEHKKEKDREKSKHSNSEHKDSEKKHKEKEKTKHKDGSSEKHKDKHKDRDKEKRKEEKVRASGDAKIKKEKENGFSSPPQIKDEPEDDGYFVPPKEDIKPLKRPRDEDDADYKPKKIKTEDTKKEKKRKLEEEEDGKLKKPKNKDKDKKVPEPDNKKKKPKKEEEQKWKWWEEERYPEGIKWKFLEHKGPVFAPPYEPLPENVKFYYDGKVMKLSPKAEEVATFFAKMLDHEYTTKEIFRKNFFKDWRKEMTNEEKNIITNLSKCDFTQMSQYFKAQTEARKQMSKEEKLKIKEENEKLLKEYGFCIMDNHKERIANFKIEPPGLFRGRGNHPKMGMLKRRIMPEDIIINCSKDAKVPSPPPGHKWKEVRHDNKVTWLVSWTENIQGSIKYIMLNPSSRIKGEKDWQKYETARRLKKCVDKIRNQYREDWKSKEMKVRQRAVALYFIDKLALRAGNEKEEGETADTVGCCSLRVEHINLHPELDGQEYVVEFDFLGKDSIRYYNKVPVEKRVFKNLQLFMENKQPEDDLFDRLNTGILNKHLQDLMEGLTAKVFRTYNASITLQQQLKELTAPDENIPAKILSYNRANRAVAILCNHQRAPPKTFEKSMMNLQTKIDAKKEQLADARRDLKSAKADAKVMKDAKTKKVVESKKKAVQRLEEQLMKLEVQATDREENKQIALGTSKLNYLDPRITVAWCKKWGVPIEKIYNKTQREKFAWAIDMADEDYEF
Excerpt: To test the inhibitory effect of the synthetic library of neutral porphyrin compounds (Scheme 1) on human Top1 activity, we performed the DNA relaxation assays in a standard assay mixture containing the plasmid DNA and recombinant Top1.[6],[13],[36],[37]Table 1 enlists the compounds with relative efficiencies of Top1 inhibition as a measure of their effective drug concentrations (EC50 value), indicating the highest activity for the selected neutral porphyrin derivative compound 8.
To examine the mechanism of Top1 inhibition with compound 8, we used variable incubation conditions in the relaxation assays (Figure 1A). […] Next, to test the impact of compound 8 interaction with Top1 in the relaxation assays, we preincubated Top1 with compound 8 at indicated concentrations (Figure 1A, lanes 5–8) separately before the addition of DNA.[6],[13],[36],[38]
The recombinant human Top1 was purified from Sf-9 insect cells, infected with the recombinant baculovirus (a kind gift from Prof. James. J. Champoux) as described previously.[6],[13]
The type 1 DNA topoisomerase is assayed by decreased mobility of the relaxed isomers of supercoiled pBS (SK^+) DNA in 1% agarose gel. […]

[1] = target: T2, Top1-DNA cleavage complexes (Top1cc) (Homo sapiens, UniProt P11387); experiment: Single turnover equilibrium cleavage assay with 25-mer duplex oligonucleotide; type: biochemical
T2 construct: made in house; host or cells: Sf-9 insect cells (recombinant baculovirus, gift of Prof. James J. Champoux)
T2 sequence (P11387 1-765): T1 sequence (P11387 1-765)
Procedure: Plasmid DNA cleavage assay was carried out as described previously.[6],[8] For equilibrium cleavage assays, 25-mer duplex of oligonucleotide containing a Top1 binding motif was labeled and annealed as described previously.[13],[36],[38] Samples were analyzed by 12% sequencing gel electrophoresis, dried, and exposed on PhosphorImager screens and imaged with Typhoon FLA 7000 (GE Healthcare, U.K.).

[2] = system: relaxed pBS (SK+) plasmid DNA; experiment: Topoisomerase I unwinding assay (DNA intercalation); settings: m-AMSA and etoposide 50 and 300 μM; compound 8 50, 100, 300 μM
Procedure: Therefore, compound 8 interacts in reversible manner with Top1 to inhibit the plasmid relaxation activity (Figure 1).
The competence of the drug to intercalate into plasmid DNA was determined by Top1 unwinding assay.[36],[44] Assays were performed with 50 fmol of pBluscript (SK+) DNA in the presence or absence of compound 8, m-AMSA, and etoposide at indicated concentrations. Excess of DNA topoisomerase I was reacted with supercoiled plasmid DNA to generate relaxed DNA for the unwinding assays. The relaxed DNA was purified by proteolytic digestion with proteinase K at 37 °C, followed by phenol/chloroform extraction and ethanol precipitation. The unwinding assays were carried out at 37 °C for 15 min with independent compounds and were analyzed by 1% agarose gel as described above.

[3] = system: PARP1 cleavage in MCF7 cells; experiment: Western blot of PARP1 cleavage in treated MCF7 cells; type: cell-based, human; settings: 10 μM, 12 h
Procedure: Preparation of whole cell extracts from MCF7 cells and immunoblotting were carried out as described.[6],[40],[41] Immunoreactivity was detected using ECL chemiluminescence reaction (Amersham) under ChemiDoc MP system (Bio-Rad, USA).

[4] = system: human breast adenocarcinoma cell lines (MCF7); experiment: Cell survival (MTT) assay, MCF7; type: cell-based; settings: MCF7, CPT 5 μM 12 h prior to addition of compound 8
Procedure: (§1) Compound 8 was investigated for its cytotoxicity in the cancer cell lines from different tissue origin,[6],[41] as well as in the noncancerous human embryonic kidney cell lines (HEK293) and mouse embryonic fibroblasts (MEFs). […] The MCF7 breast cancer cell lines were most susceptible to compound 8.
(§2) Cell survival was assessed by 3-(4,5-dimethylthiazol-2-yl)-2,5-diphenyltetrazolium bromide (MTT) assay as discussed previously.[6] The percent inhibition of viability for each concentration of the compounds was calculated with respect to the control, and IC50 values were estimated.

[5] = Cell survival (MTT) assay, HEK293; type: cell-based; settings: human, HEK293 cells (noncancerous embryonic kidney), read-out: IC50 cytotoxicity
Procedure: as §1, §2

inhibition at 1 µM (recombinant Top1): 85 to 95%
Stabilization of Top1cc in single turnover equilibrium cleavage assay ([1]; 25-mer duplex oligonucleotide, recombinant Top1 0.2 μM): failed to stabilize Top1cc
Effect on CPT-induced Top1cc with 12-mer cleaved oligonucleotides ([1]; Top1 incubated with CPT before addition of compound): reversed the CPT-induced Top1cc
Compound: CN(C)c1ccc(-c2c3nc(c(-c4ccc(N(C)C)cc4)c4ccc([nH]4)c(-c4ccc(C(=O)O)cc4)c4nc(c(-c5ccc(C(=O)O)cc5)c5ccc2[nH]5)C=C4)C=C3)cc1 [Compound 8, 5,10-Bis(4-carboxyphenyl)-15,20-bis(4-dimethylaminophenyl)porphyrin]
Negative supercoiling of relaxed plasmid DNA (intercalation) [2]: failed to induce negative supercoiling of the relaxed plasmid DNA
PARP cleavage [3]: promotes PARP cleavage
Cytotoxicity of CPT pretreatment followed by compound 8 [4]: not additive in cytotoxicity
IC50 [5]: > 10 µM
